Values joined by “and” are separate entries in the source; they are usually repeats but may differ in a detail not shown here. Equal entries are not always repeated.
Columns and labels:
[1] = test system: gene-modified allodepleted cells (SFG.iCasp9.2A.CD19); test: Suicide gene function after extended culture and reactivation; assay type: cell-based, human
Procedure: Cells were maintained in T cell medium containing 50 U/ml IL-2 until 22 days after transduction. A portion of cells was reactivated on 24-well plates coated with […] OKT3 and 1 μg/ml anti-CD28 (Clone CD28.2, BD Pharmingen, San Jose, Calif.) for 48 to 72 hours. CD19 expression and suicide gene function in both reactivated and non-reactivated cells were measured on day 24 or 25 post transduction.
To assess the stability of transgene expression and function, cells were maintained in T cell culture medium and low dose IL-2 (50 U/ml) until […] after transduction. A portion of cells was then reactivated with OKT3/anti-CD28. CD19 expression was analyzed by flow cytometry 48 to 72 hours later, and suicide gene function was assessed by treatment with 10 nM AP20187. The obtained are for cells from day 5 post transduction (ie, 1 day after CD 19 selection) and day 24 post transduction, with or without 48-72 hours of reactivation (5 experiments). In 2 experiments, CD25 selection was performed after OKT3/aCD28 activation to further enrich activated cells. Error bars represent standard deviation. * indicates p<0.05 when compared to cells from day 5 post transduction. By day 24, surface CD19 expression fell from about 98%±1% to about 88%±4% (p<0.05) with a parallel decrease in mean fluorescence intensity (MFI) from 793±128 to 478±107 (p<0.05) (see FIG. 13B). Similarly, there was a significant reduction in suicide gene function: residual viability was 19.6±5.6% following treatment with AP20187; after correction for baseline viability of 54.8±20.9%, this equated to killing efficiency of only 63.1±6.2%.
To determine whether the decrease in transgene expression with time was due to reduced transcription following T cell quiescence or to elimination of transduced cells, a portion of cells were reactivated on day 22 post transduction with OKT3 and anti-CD28 antibody. […] CD19 expression increased from about 88%±4% to about 93%±4% (p<0.01) and CD19 MFI increased from 478±107 to 643±174 (p<0.01). […] 2±1.2%, which was the same as killing efficiency on day 5 post transduction (93.1±3.5%). Killing of the CD25 negative fraction was 78.6±9.1%.

non-transduced cells = test: Viability of non-transduced cells with AP20187; assay type: cell-based, human; conditions: n=6
Procedure: (§1) Suicide gene functionality was assessed by adding a small molecule synthetic homodimerizer, AP20187 (Ariad Pharmaceuticals; Cambridge, Mass.), at 10 nM final concentration the day following CD19 immunomagnetic selection. Cells were stained with annexin V and 7-amino-actinomycin (7-AAD)(BD Pharmingen) at 24 hours and analyzed by flow cytometry. Cells negative for both annexin V and 7-AAD were considered viable, cells that were annexin V positive were apoptotic, and cells that were both annexin V and 7-AAD positive were necrotic. The percentage killing induced by dimerization was corrected for baseline viability as follows: Percentage killing=100%−(% Viability in AP20187-treated cells÷% Viability in non-treated cells).
(§2) The day following immunomagnetic selection, 10 nM of the chemical inducer of dimerization, AP20187, was added to induce apoptosis, which appeared within 24 hours.

iCasp9-transduced MSCs = test: Apoptosis of iCasp9-ΔCD19 transduced undifferentiated MSCs after CID (annexin V/7-AAD)
[2] = test system: iCasp9M-transduced EBV-CTLs; test: CID-induced elimination of GFP+ iCasp9M-transduced EBV-CTLs (flow cytometry); assay type: cell-based, human
[3] = test system: gene-modified allodepleted cells (SFG.iCasp9.2A.CD19); test: Induction of apoptosis with AP20187 in gene-modified allodepleted cells (annexin V/7-AAD); assay type: cell-based, human
Procedure: as §1, §2

[4] = test system: differentiated iCasp9-positive MSCs; test: Apoptosis of differentiated iCasp9 MSCs after CID (TUNEL, cell density); conditions: adipocytic differentiation; 50 nM CID; 24 hours; from 584
[5] = test system: F-Casp9M.I.GFPhigh-transduced T cells; test: Annexin V/7-AAD staining of iCasp9M GFPhigh T cells after CID; assay type: cell-based, human
Procedure: CID (AP20187; ARIAD Pharmaceuticals) at indicated concentrations was added to transfected 293T cells or transduced CTLs. Adherent and nonadherent cells were harvested and washed with annexin binding buffer (BD Pharmingen, San Jose, Calif.). Cells were stained with annexin-V and 7-amino-actinomycin D (7-AAD) for 15 minutes according to the manufacturer's instructions (BD Pharmingen). Within 1 hour after staining, cells were analyzed by flow cytometry using CellQuest software (Becton Dickinson).
A representative example of 3 separate experiments is shown.
For clinical applications therefore, versions of the expression constructs with selectable markers that allow selection for high copy number, high levels of expression, or both high copy number and high levels of expression may be desirable. […] The dose response remained unchanged for at least 4 weeks after transduction.

Jurkat cells = test: CID-induced apoptosis (annexin V) in transduced Jurkat cells; assay type: cell-based, human; conditions: 10 nM CID for 8 hours
[6] = large-scale CD19 selection (n=3)
[7] = T cells selected for high expression, overnight 10 nM CID, mean
[8] = representative example of 3 experiments

For `CC[C@H](C(=O)N1CCCC[C@H]1C(=O)O[C@H](CCc1ccc(OC)c(OC)c1)c1cccc(OCC(=O)NCC(CNC(=O)COc2cccc([C@@H](CCc3ccc(OC)c(OC)c3)OC(=O)[C@@H]3CCCCN3C(=O)[C@@H](CC)c3cc(OC)c(OC)c(OC)c3)c2)CN(C)C)c1)c1cc(OC)c(OC)c(OC)c1` [AP20187], the killing ([1]; CD25 negative fraction) was 78.6±9.1%, the killing efficiency ([1]; OKT3/aCD28-reactivated cells, day 24 or 25) was ~84.6%±8.0% and the killing efficiency ([1]; day 5 post transduction) was 93.1±3.5%. The killing efficiency ([1]; day 24 post transduction, non-reactivated) was 63.1±6.2% and ~63.1%±6.2%, the “residual viability following treatment with AP20187” value ([1]; day 24 post transduction, non-reactivated, 10 nM) was 19.6±5.6% and the “viability of non-transduced cells with AP20187” value (non-transduced cells) was “about 86%±9%”. The “apoptosis index of iCasp9-negative cells” value (iCasp9-transduced MSCs; 50 nM CID, 24 hrs) was 20±7%, the “annexin positive, negative population (iCasp neg/CID)” value (iCasp9-transduced MSCs; 50 nM CID, representative FACS) was 19% and the “annexin positive, non-transduced control MSC (Control/CID)” value (iCasp9-transduced MSCs; 50 nM CID, representative FACS) was 15%. The “apoptotic death of iCasp9-positive cells” value (iCasp9-transduced MSCs; 50 nM CID, within 24 hrs) was 93±1%, the “immunoselected iCasp9-CD19-positive cells apoptotic after CID” value (iCasp9-transduced MSCs; magnetic immunoselection) was “More than 95%” and the “reduction in mean fluorescence intensity of GFP after CID” value ([2]; CTLs that survived CID treatment) was 70%. The “CID sufficient to obtain the maximal deletion effect” value ([2]; F-Casp9M.I.GFPhigh, survival of GFP+ cells on day 7) was 1 nM, the “Elimination of GFP+ cells” value ([2]; iCasp9M-transduced CTLs, GFPhigh, 1:1 with nontransduced, 10 nM CID, day 7) was 99.2%+/−0.14% and the “GFP+ cells eliminated” value ([2]; single 10-nM dose of CID, unselected iCasp9M CTLs, 5 donors) was 91.3%. For the same compound, the “Killing efficiency after correction for baseline viability” value ([3]; 10 nM, 24 hours) was “about 92.9%±3.8%”, the “AP20187-treated cells remaining viable” value ([3]; 10 nM, 24 hours, day following CD19 selection) was “about 5.5%±2.5%” and the “apoptosis after treatment with dimerizer” value ([3]; iCasp9 donor T cells) was > 90%. The “mean viability with AP20187” value [3, 6] was “about 3.9%”, the percentage killing [3, 6] was “about 95.4%” and the “mean viability with AP20187” value ([3]; small-scale selection (n=5)) was “about 6.6%”. For the same compound, the percentage killing ([3]; small-scale selection (n=5)) was “about 91.4%”, the “cell density after CID” value [4] was < 14 cells/mm2 and the “apoptotic (annexin-V+/7-AAD−) phenotype” value [5, 7] was 64%. For the same compound, the “necrotic (annexinV+/7-AAD+) phenotype” value [5, 7] was 30%, the “apoptotic phenotype (annexin V+, 7-AAD−)” value [5, 8] was 64% and the “necrotic phenotype (annexin V+, 7-AAD+)” value [5, 8] was 32%. The “apoptosis (annexin-V staining)” value (Jurkat cells; iCasp9M-transduced Jurkat) was 57.2%+/−18.9% and the “apoptosis (annexin-V staining)” value (Jurkat cells; iFas-transduced Jurkat) was 56.4%+/−15.6%.
